Consider 26 molecules from patent publication US12145944B2, “Imidazopyrimidines as EED inhibitors and the use thereof” (THE REGENTS OF THE UNIVERSITY OF MICHIGAN, priority 2019, dated 2024).

pIC50: −log10 of the molar value.

The test system of the first experiment is KARPAS422 human B cell lymphoma cell. The experiment can be described thus: Cell proliferation, KARPAS422, 7 day treatment (WST-8). The format is cell-based. The settings on record: Homo sapiens, KARPAS-422, 168 h, anti-proliferative IC50, Karpas 422 cell line, 7 day treatment; read-out: Karpas Cell line. On the procedure: “N/A” stands for “not assessed”.
Analysis of Cell Proliferation:
To assess the effect of PRC2 inhibition on cell growth, cells were seeded in 96-well cell culture plates at a density of 2 000-3 000 cells/well in 200 µL of culture medium, and treated with serially diluted compounds for 7 days at 37° C. in an atmosphere of 5% CO2. Cell growth was evaluated by a […] WST-8 assay (Dojindo Molecular Technologies) using a Tecan Infinite M1000 multimode microplate reader (Tecan, Morrisville, NC). The WST-8 reagent was added to the plate, incubated for 1-4 h, and read at 450 nm. The readings were normalized to the DMSO-treated cells, and the IC50 was calculated by nonlinear regression analysis using GraphPad Prism 6 software
For orientation: Tetrazolium dyes change colour on reduction, which living cells bring about.
In the case of `Cc1ccc2c(n1)CN(CC1CC(C)(O)C1)C(=O)c1ncn3c(NCc4c(F)ccc5c4CCO5)ncc-2c13` (centres unmarked) [compound 50, 12-(((5-fluoro-2,3-dihydrobenzofuran-4-yl)methyl)amino)-4-((3-hydroxy-3-methylcyclobutyl)methyl)-7-methyl-4,5-dihydro-3H-2,4,6,11,12a-pentaazabenzo[4,5]cycloocta[1,2,3-cd]inden-3-one], the pIC50 was 9.15.
Consider `COc1cccc(F)c1CNc1ncc2c3c(ncn13)C(=O)N(C1CC1)Cc1cc(C(F)(F)F)ncc1-2` [compound 70, 4-cyclopropyl-12-((2-fluoro-6-methoxybenzyl)amino)-7-(trifluoromethyl)-4,5-dihydro-3H-2,4,8,11,12a-pentaazabenzo[4,5]cycloocta[1,2,3-cd]inden-3-one], for which the pIC50 was less than 7.00.
Same read-out and setting: then `O=C1c2ncn3c(NCc4c(F)ccc5c4CCO5)ncc(c23)-c2ccc(C(F)(F)F)nc2CN1C1CCOCC1` [compound 51, 12-(((5-fluoro-2,3-dihydrobenzofuran-4-yl)methyl)amino)-4-(tetrahydro-2H-pyran-4-yl)-7-(trifluoromethyl)-4,5-dihydro-3H-2,4,6,11,12a-pentaazabenzo[4,5]cycloocta[1,2,3-cd]inden-3-one], with 8.68; and `CNC(=O)c1ncn2c(NCc3ccco3)ncc(-c3ccccc3)c12` [Cpd. No. 128, 5-((furan-2-ylmethyl)amino)-N-methyl-8-phenylimidazo[1,5-c]pyrimidine-1-carboxamide], with less than 7.00.
Take `Cn1ncc2c1CNC(=O)c1ncn3c(NCc4c(F)ccc5c4CCO5)ncc-2c13` [compound 53, 11-(((5-fluoro-2,3-dihydrobenzofuran-4-yl)methyl)amino)-6-methyl-5,6-dihydro-2,4,6,7,10,11a-hexaazacyclopenta[4,5]cycloocta[1,2,3-cd]inden-3(4H)-one]: the pIC50 is less than 7.00.
On the same count and under the same terms, for `CCOC(=O)c1ncn2c(NCc3ccco3)ncc(-c3ccccc3)c12` [Cpd. No. 127, ethyl 5-((furan-2-ylmethyl)amino)-8-phenylimidazo[1,5-c]pyrimidine-1-carboxylate] the value was less than 7.00; for `O=C1c2ncn3c(NCc4c(F)ccc5c4CCO5)ncc(c23)-c2ccc(C(F)(F)F)nc2CN1CC1CC1` [compound 55, 4-(cyclopropylmethyl)-12-(((5-fluoro-2,3-dihydrobenzofuran-4-yl)methyl)amino)-7-(trifluoromethyl)-4,5-dihydro-3H-2,4,6,11,12a-pentaazabenzo[4,5]cycloocta[1,2,3-cd]inden-3-one], 8.09.
On the same count and under the same terms, for `O=C1c2ncn3c(NCc4c(F)ccc5c4CCO5)ncc(c23)-c2ccc(C(F)(F)F)nc2CN1CC1CCOCC1` [compound 46, 12-(((5-fluoro-2,3-dihydrobenzofuran-4-yl)methyl)amino)-4-((tetrahydro-2H-pyran-4-yl)methyl)-7-(trifluoromethyl)-4,5-dihydro-3H-2,4,6,11,12a-pentaazabenzo[4,5]cycloocta[1,2,3-cd]inden-3-one] the value was 9.24; for `CC(F)(F)CN1Cc2nc(C(F)(F)F)ccc2-c2cnc(NCc3c(F)ccc4c3CCO4)n3cnc(c23)C1=O` [compound 77, 4-(2,2-difluoropropyl)-12-(((5-fluoro-2,3-dihydrobenzofuran-4-yl)methyl)amino)-7-(trifluoromethyl)-4,5-dihydro-3H-2,4,6,11,12a-pentaazabenzo[4,5]cycloocta[1,2,3-cd]inden-3-one], 7.65; for `O=C1c2ncn3c(NCc4c(F)ccc5c4CCO5)ncc(c23)-c2cnc(C(F)(F)F)cc2CN1CCF` [compound 72, 12-(((5-fluoro-2,3-dihydrobenzofuran-4-yl)methyl)amino)-4-(2-fluoroethyl)-7-(trifluoromethyl)-4,5-dihydro-3H-2,4,8,11,12a-pentaazabenzo[4,5]cycloocta[1,2,3-cd]inden-3-one], 8.41.
Still for that read-out and setting: then `CNC(=O)c1ncn2c(NCc3cc(OC)ccc3F)ncc(-c3ccccc3)c12` [compound 139, 5-((2-fluoro-5-methoxybenzyl)amino)-N-methyl-8-phenylimidazo[1,5-c]pyrimidine-1-carboxamide], with less than 7.00; and `CC(C)N1Cc2cc(C(F)(F)F)ncc2-c2cnc(NCc3c(F)ccc4c3CCO4)n3cnc(c23)C1=O` [compound 73, 12-(((5-fluoro-2,3-dihydrobenzofuran-4-yl)methyl)amino)-4-isopropyl-7-(trifluoromethyl)-4,5-dihydro-3H-2,4,8,11,12a-pentaazabenzo[4,5]cycloocta[1,2,3-cd]inden-3-one], with 7.95.
`O=C1OCc2cc(OC(F)(F)F)ccc2-c2cnc(NCc3c(F)ccc4c3CCO4)n3cnc1c23` [compound 31, 12-(((5-fluoro-2,3-dihydrobenzofuran-4-yl)methyl)amino)-7-(trifluoromethoxy)-3H,5H-4-oxa-2,11,12a-triazabenzo[4,5]cycloocta[1,2,3-cd]inden-3-one]: the pIC50 was 8.43.
On to `CNC(=O)c1ncn2c(NCc3c(F)ccc4c3CCO4)ncc(-c3ccccc3)c12` [compound 142, 5-(((5-fluoro-2,3-dihydrobenzofuran-4-yl)methyl)amino)-N-methyl-8-phenylimidazo[1,5-c]pyrimidine-1-carboxamide], for which the pIC50 is less than 7.00.
In the case of `Cn1cc2c(n1)COC(=O)c1ncn3c(NCc4c(F)ccc5c4CCO5)ncc-2c13` [compound 54, 11-(((5-fluoro-2,3-dihydrobenzofuran-4-yl)methyl)amino)-7-methyl-5,7-dihydro-3H-4-oxa-2,6,7,10,11a-pentaazacyclopenta[4,5]cycloocta[1,2,3-cd]inden-3-one], the pIC50 was less than 7.00.
Same read-out and setting: for `CCOC(=O)c1ncn2c(NCc3c(F)ccc(OC)c3Cl)ncc(-c3ccccc3)c12` [compound 133, ethyl 5-((2-chloro-6-fluoro-3-methoxybenzyl)amino)-8-phenylimidazo[1,5-c]pyrimidine-1-carboxylate] the value was less than 7.00; for `Cc1nn(C)c2c1-c1cnc(NCc3c(F)ccc4c3CCO4)n3cnc(c13)C(=O)N(C1CC1)C2` [compound 56, 4-cyclopropyl-11-(((5-fluoro-2,3-dihydrobenzofuran-4-yl)methyl)amino)-6,8-dimethyl-5,6-dihydro-2,4,6,7,10,11a-hexaazacyclopenta[4,5]cycloocta[1,2,3-cd]inden-3(4H)-one], 7.68; for `CC1(O)CC(CN2Cc3cc(C(F)(F)F)ncc3-c3cnc(NCc4c(F)ccc5c4CCO5)n4cnc(c34)C2=O)C1` (centres unmarked) [compound 49, 12-(((5-fluoro-2,3-dihydrobenzofuran-4-yl)methyl)amino)-4-((3-hydroxy-3-methylcyclobutyl)methyl)-7-(trifluoromethyl)-4,5-dihydro-3H-2,4,8,11,12a-pentaazabenzo[4,5]cycloocta[1,2,3-cd]inden-3-one], 8.56.
The same measure, in the same setting: for `O=C1c2ncn3c(NCc4c(F)ccc5c4CCO5)ncc(c23)-c2ccc(C(F)(F)F)cc2CN1CC1CCOCC1` [compound 66, 12-(((5-fluoro-2,3-dihydrobenzofuran-4-yl)methyl)amino)-4-((tetrahydro-2H-pyran-4-yl)methyl)-7-(trifluoromethyl)-4,5-dihydro-3H-2,4,11,12a-tetraazabenzo[4,5]cycloocta[1,2,3-cd]inden-3-one] the value was 9.13; for `O=C1c2ncn3c(NCc4c(F)ccc5c4CCO5)ncc(c23)-c2ccc(C(F)(F)F)cc2CN1C1CC1` [compound 67, 4-cyclopropyl-12-(((5-fluoro-2,3-dihydrobenzofuran-4-yl)methyl)amino)-7-(trifluoromethyl)-4,5-dihydro-3H-2,4,11,12a-tetraazabenzo[4,5]cycloocta[1,2,3-cd]inden-3-one], 8.11; for `CCOC(=O)c1ncn2c(NCc3ccccc3OC)ncc(-c3ccccc3)c12` [compound 129, ethyl 5-((2-methoxybenzyl)amino)-8-phenylimidazo[1,5-c]pyrimidine-1-carboxylate], less than 7.00.
With `Fc1ccc2c(c1CNc1ncc(-c3ccccc3)c3c(C(F)(F)F)ncn13)CCO2` [Cpd. No. 143, N-((5-fluoro-2,3-dihydrobenzofuran-4-yl)methyl)-8-phenyl-1-(trifluoromethyl)imidazo[1,5-c]pyrimidin-5-amine], the pIC50 is less than 7.00.
Still for that read-out and setting: for `c1ccc(-c2cnc(NCc3ccco3)n3cncc23)cc1` [Cpd. No. 126, N-(furan-2-ylmethyl)-8-phenylimidazo[1,5-c]pyrimidin-5-amine] the value was less than 7.00.

Still in this experiment, the particulars now being: Homo sapiens, KARPAS-422, 168 h, read-out: Karpas Cell line (nM).
Regarding `Cc1ccc(-c2cnc(NCc3c(F)ccc4c3CCO4)n3cnc(S(C)(=O)=O)c23)cn1` [compound 103, N-((5-fluoro-2,3-dihydrobenzofuran-4-yl)methyl)-8-(6-methylpyridin-3-yl)-1-(methylsulfonyl)imidazo[1,5-c]pyrimidin-5-amine], the IC50 turned out to be 1.88 nM.
Same read-out and setting: then `CS(=O)(=O)c1ccc(-c2cnc(NCc3c(F)ccc4c3CCO4)n3cnc(S(C)(=O)=O)c23)cn1` [compound 105, N-((5-fluoro-2,3-dihydrobenzofuran-4-yl)methyl)-1-(methylsulfonyl)-8-(6-(methylsulfonyl)pyridin-3-yl)imidazo[1,5-c]pyrimidin-5-amine], with 10.8 nM.

The experiment is the same for the next values; noted with them: anti-proliferative IC50, Karpas 422 cell line, 7 day treatment; read-out: Karpas Cell line.
For `O=C1c2ncn3c(NCc4c(F)ccc5c4CCO5)ncc(c23)-c2ccc(F)cc2CN1C1CC1` [compound 64, 4-cyclopropyl-7-fluoro-12-(((5-fluoro-2,3-dihydrobenzofuran-4-yl)methyl)amino)-4,5-dihydro-3H-2,4,11,12a-tetraazabenzo[4,5]cycloocta[1,2,3-cd]inden-3-one], the pIC50 was 8.61.
